# Experimental data taken from ChEMBL document CHEMBL1201862, “PubChem BioAssay data set” (2004).
#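 96-well plates; 48 h exposure; 5 concentrations. Endpoints by linear interpolation between flanking doses. Not reached: highest tested concentration assigned. GI50 marks 50% less growth.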 Active and inactive are the calls of the source. No stated cut-off is given here; in the data, active = GI50 up to about 1.1 µM and inactive = higher.
# Legend:
# Test in all cases: DTP human tumour cell line panel, 48 h
# COLO 205 = tested on: COLO 205
# SK-MEL-28 = tested on: SK-MEL-28
# A549 = tested on: A549
# K562 = tested on: K562
# MOLT-4 = tested on: MOLT-4
# SW-620 = tested on: SW-620
# SF-295 = tested on: SF-295
# HCT-15 = tested on: HCT-15
# OVCAR-4 = tested on: OVCAR-4
# HCC 2998 = tested on: HCC 2998
# SK-MEL-2 = tested on: SK-MEL-2
# UO-31 = tested on: UO-31
# UACC-257 = tested on: UACC-257
# U-251 = tested on: U-251
# HOP-62 = tested on: HOP-62
# HCT-116 = tested on: HCT-116
# HT-29 = tested on: HT-29
# NCI-H23 = tested on: NCI-H23
# SK-MEL-5 = tested on: SK-MEL-5
# RPMI-8226 = tested on: RPMI-8226
# SNB-75 = tested on: SNB-75
# PC-3 = tested on: PC-3
# CCRF-CEM = tested on: CCRF-CEM
# HOP-92 = tested on: HOP-92
# IGROV-1 = tested on: IGROV-1
# BT-549 = tested on: BT-549
# NCI-H522 = tested on: NCI-H522
# NCI-H460 = tested on: NCI-H460
# MDA-N = tested on: MDA-N
# OVCAR-5 = tested on: OVCAR-5
# MDA-MB-435 = tested on: MDA-MB-435
# SK-OV-3 = tested on: SK-OV-3
# CAKI-1 = tested on: CAKI-1
# KM12 = tested on: KM12
# A498 = tested on: A498
# OVCAR-3 = tested on: OVCAR-3
# SNB-19 = tested on: SNB-19
# UACC-62 = tested on: UACC-62
# Malme-3M = tested on: Malme-3M
# M14 = tested on: M14
# DU-145 = tested on: DU-145
# SN12C = tested on: SN12C
# T47D = tested on: T47D
# SF-539 = tested on: SF-539
# 786-0 = tested on: 786-0
# LOX IMVI = tested on: LOX IMVI
# HL-60 = tested on: HL-60
# ACHN = tested on: ACHN
# Hs-578T = tested on: Hs-578T
# SR = tested on: SR
# TK-10 = tested on: TK-10
# EKVX = tested on: EKVX
# SF-268 = tested on: SF-268
# NCI/ADR-RES = tested on: NCI/ADR-RES
# MCF7 = tested on: MCF7
# NCI-H226 = tested on: NCI-H226
# OVCAR-8 = tested on: OVCAR-8
# MDA-MB-231 = tested on: MDA-MB-231
# RXF 393 = tested on: RXF 393
structure (smiles),measurement,setting,value
CC(=O)OC1COC(n2c3ccccc3c3ccc4c5ccccc5[nH]c4c32)C(OC(C)=O)C1OC(C)=O (stereo not given),GI50,COLO 205,39.1 µM (inactive)
same,GI50,SK-MEL-28,37.8 µM (inactive)
same,GI50,A549,44.8 µM (inactive)
same,GI50,K562,0.6 µM (active)
same,GI50,MOLT-4,> 100 µM (inactive)
same,GI50,SW-620,41.2 µM (inactive)
same,GI50,SF-295,15.1 µM (inactive)
same,GI50,HCT-15,70 µM
same,GI50,OVCAR-4,37.6 µM (inactive)
same,GI50,HCC 2998,61.8 µM (inactive)
same,GI50,SK-MEL-2,58.1 µM (inactive)
same,GI50,UO-31,38.6 µM (inactive)
same,GI50,UACC-257,> 100 µM (inactive)
same,GI50,U-251,29.2 µM (inactive)
same,GI50,HOP-62,22.9 µM (inactive)
same,GI50,HCT-116,65.9 µM (inactive)
same,GI50,HT-29,22.3 µM (inactive)
same,GI50,NCI-H23,36.8 µM (inactive)
same,GI50,SK-MEL-5,36 µM (inactive)
same,GI50,RPMI-8226,95.7 µM (inactive)
same,GI50,SNB-75,0.29 µM (active)
same,GI50,PC-3,27.2 µM (inactive)
same,GI50,CCRF-CEM,70.3 µM (inactive)
same,GI50,HOP-92,30.1 µM (inactive)
same,GI50,IGROV-1,0.0512 µM (active)
same,GI50,BT-549,89.3 µM (inactive)
same,GI50,NCI-H522,18.2 µM (inactive)
same,GI50,NCI-H460,21.3 µM (inactive)
same,GI50,MDA-N,53.3 µM (inactive)
same,GI50,OVCAR-5,23.4 µM (inactive)
same,GI50,MDA-MB-435,39.1 µM (inactive)
same,GI50,SK-OV-3,18.6 µM (inactive)
same,GI50,CAKI-1,29.2 µM (inactive)
same,GI50,KM12,17.8 µM (inactive)
same,GI50,A498,32.8 µM (inactive)
same,GI50,OVCAR-3,27 µM (inactive)
same,GI50,SNB-19,61.4 µM (inactive)
same,GI50,UACC-62,67.9 µM (inactive)
COC(=O)c1cc(CC2Cc3cc4c(cc3C2)CCC4)cc2c1CCC2,GI50,COLO 205,> 100 µM (inactive)
same,GI50,Malme-3M,> 100 µM (inactive)
same,GI50,SK-MEL-28,> 100 µM (inactive)
same,GI50,A549,> 100 µM (inactive)
same,GI50,K562,> 100 µM (inactive)
same,GI50,M14,> 100 µM (inactive)
same,GI50,DU-145,> 100 µM (inactive)
same,GI50,SN12C,> 100 µM (inactive)
same,GI50,MOLT-4,23.7 µM (inactive)
same,GI50,T47D,> 100 µM (inactive)
same,GI50,SW-620,> 100 µM (inactive)
same,GI50,SF-295,> 100 µM (inactive)
same,GI50,SF-539,> 100 µM (inactive)
same,GI50,HCT-15,67.5 µM
same,GI50,786-0,> 100 µM (inactive)
same,GI50,OVCAR-4,> 100 µM (inactive)
same,GI50,HCC 2998,> 100 µM (inactive)
same,GI50,SK-MEL-2,40.4 µM (inactive)
same,GI50,UO-31,> 100 µM (inactive)
same,GI50,LOX IMVI,56.5 µM (inactive)
same,GI50,UACC-257,37.2 µM (inactive)
same,GI50,HL-60,56.6 µM (inactive)
same,GI50,U-251,> 100 µM (inactive)
same,GI50,HOP-62,> 100 µM (inactive)
same,GI50,HCT-116,58.7 µM (inactive)
same,GI50,HT-29,49 µM (inactive)
same,GI50,ACHN,> 100 µM (inactive)
same,GI50,Hs-578T,> 100 µM (inactive)
same,GI50,SR,29.5 µM (inactive)
same,GI50,TK-10,> 100 µM (inactive)
same,GI50,NCI-H23,> 100 µM (inactive)
same,GI50,SK-MEL-5,33.9 µM (inactive)
same,GI50,RPMI-8226,41 µM (inactive)
same,GI50,SNB-75,> 100 µM (inactive)
same,GI50,PC-3,81.8 µM (inactive)
same,GI50,CCRF-CEM,52.5 µM (inactive)
same,GI50,HOP-92,88.9 µM (inactive)
same,GI50,IGROV-1,97.1 µM (inactive)
same,GI50,EKVX,> 100 µM (inactive)
same,GI50,SF-268,> 100 µM (inactive)
same,GI50,NCI/ADR-RES,> 100 µM (inactive)
same,GI50,NCI-H522,57.4 µM (inactive)
same,GI50,MCF7,89.1 µM (inactive)
same,GI50,NCI-H460,> 100 µM (inactive)
same,GI50,MDA-N,60.3 µM (inactive)
same,GI50,NCI-H226,> 100 µM (inactive)
same,GI50,OVCAR-8,> 100 µM (inactive)
same,GI50,MDA-MB-231,> 100 µM (inactive)
same,GI50,OVCAR-5,> 100 µM (inactive)
same,GI50,MDA-MB-435,48 µM (inactive)
same,GI50,SK-OV-3,> 100 µM (inactive)
same,GI50,RXF 393,62.2 µM (inactive)
same,GI50,CAKI-1,> 100 µM (inactive)
same,GI50,KM12,61.5 µM (inactive)
same,GI50,A498,> 100 µM (inactive)
same,GI50,OVCAR-3,> 100 µM (inactive)
same,GI50,SNB-19,> 100 µM (inactive)
